Laboratory results published in ChEMBL document CHEMBL5236583, “Semisynthesis, biological activities, and mechanism studies of Mannich base analogues of magnolol/honokiol as potential α-glucosidase inhibitors” (Bioorg Med Chem, 2022).
Calls of active or inactive are those of the source. The rule behind the calls is not given here.

What was measured:
[1] = molecular target: Maltase-glucoamylase (Homo sapiens) (UniProt O43451); test: Inhibition of alpha-glucosidase (unknown origin) using pNPG as substrate at 64 uM preincubated with enzyme for 15 mins followed by substrate addition and measured after 10 mins by microplate reader analysis; conditions: time 25.0 min
Maltase-glucoamylase (Homo sapiens), sequence (O43451 whole entry, looked up): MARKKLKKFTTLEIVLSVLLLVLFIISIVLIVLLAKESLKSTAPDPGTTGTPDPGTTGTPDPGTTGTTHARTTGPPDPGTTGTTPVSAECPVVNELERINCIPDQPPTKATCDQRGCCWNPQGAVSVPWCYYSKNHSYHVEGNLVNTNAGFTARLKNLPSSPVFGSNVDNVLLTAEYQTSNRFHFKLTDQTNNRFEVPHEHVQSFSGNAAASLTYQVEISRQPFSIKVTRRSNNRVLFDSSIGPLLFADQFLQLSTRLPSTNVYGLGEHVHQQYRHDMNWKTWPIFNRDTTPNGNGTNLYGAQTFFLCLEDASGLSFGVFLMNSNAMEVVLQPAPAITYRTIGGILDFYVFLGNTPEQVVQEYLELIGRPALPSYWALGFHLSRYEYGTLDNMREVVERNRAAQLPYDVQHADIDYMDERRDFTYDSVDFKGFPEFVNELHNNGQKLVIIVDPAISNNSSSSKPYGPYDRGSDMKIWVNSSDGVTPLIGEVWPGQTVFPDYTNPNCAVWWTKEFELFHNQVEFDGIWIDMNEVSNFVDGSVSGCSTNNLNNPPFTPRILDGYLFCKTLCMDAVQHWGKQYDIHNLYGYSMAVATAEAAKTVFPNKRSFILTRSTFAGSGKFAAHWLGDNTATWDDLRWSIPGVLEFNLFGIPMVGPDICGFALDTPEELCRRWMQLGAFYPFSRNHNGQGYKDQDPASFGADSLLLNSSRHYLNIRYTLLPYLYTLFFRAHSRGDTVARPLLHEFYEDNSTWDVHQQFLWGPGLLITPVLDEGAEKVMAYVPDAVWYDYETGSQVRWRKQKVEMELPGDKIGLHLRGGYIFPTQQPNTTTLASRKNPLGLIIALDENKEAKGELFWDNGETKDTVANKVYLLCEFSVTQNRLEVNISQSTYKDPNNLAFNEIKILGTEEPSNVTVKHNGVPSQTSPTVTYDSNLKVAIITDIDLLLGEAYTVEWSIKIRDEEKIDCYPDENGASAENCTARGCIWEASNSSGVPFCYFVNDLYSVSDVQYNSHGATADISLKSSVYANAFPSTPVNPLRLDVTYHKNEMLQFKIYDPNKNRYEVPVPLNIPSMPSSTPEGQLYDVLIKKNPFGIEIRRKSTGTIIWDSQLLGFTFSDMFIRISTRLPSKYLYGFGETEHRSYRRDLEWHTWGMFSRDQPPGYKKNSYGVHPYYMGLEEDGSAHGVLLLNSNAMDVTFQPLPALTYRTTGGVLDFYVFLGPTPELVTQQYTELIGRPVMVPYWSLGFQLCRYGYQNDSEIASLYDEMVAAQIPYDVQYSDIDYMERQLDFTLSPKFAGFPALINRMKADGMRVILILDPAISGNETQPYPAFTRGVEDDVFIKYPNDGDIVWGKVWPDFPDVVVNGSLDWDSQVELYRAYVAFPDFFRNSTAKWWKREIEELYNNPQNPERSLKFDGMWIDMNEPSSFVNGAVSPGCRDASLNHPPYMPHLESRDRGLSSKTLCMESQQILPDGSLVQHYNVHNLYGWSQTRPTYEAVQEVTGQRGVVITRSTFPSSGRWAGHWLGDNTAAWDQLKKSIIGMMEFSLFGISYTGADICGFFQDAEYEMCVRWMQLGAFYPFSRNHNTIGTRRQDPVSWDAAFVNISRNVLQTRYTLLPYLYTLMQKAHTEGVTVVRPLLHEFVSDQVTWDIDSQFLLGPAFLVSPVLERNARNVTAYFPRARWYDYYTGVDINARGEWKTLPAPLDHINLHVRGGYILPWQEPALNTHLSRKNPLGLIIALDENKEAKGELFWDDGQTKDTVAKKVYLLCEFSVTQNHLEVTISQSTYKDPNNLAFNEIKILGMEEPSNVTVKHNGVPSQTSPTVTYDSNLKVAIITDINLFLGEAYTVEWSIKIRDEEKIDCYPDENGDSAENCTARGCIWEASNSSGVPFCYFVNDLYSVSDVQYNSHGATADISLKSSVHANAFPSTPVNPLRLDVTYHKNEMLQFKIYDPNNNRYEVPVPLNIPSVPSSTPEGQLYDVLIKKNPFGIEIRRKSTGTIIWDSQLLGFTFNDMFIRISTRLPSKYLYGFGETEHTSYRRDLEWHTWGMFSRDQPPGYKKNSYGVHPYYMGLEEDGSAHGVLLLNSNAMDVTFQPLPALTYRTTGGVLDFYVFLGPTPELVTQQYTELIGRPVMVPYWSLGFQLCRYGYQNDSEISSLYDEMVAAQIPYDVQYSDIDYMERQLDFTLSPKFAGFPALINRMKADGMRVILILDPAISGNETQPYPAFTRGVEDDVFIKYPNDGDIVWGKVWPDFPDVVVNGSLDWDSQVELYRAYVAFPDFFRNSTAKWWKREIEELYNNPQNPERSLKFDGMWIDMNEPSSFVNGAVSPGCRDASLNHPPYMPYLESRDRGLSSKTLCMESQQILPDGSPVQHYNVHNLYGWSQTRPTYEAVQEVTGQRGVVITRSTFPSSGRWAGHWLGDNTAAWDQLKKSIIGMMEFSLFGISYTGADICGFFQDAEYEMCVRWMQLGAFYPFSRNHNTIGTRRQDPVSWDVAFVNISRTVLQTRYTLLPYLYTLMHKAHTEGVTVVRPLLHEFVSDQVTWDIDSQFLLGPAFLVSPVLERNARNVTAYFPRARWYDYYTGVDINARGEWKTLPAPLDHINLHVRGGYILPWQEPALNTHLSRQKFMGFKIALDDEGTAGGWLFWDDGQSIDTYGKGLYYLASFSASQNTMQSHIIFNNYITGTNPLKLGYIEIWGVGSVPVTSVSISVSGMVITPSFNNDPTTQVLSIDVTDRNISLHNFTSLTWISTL

[2] = molecular target: Maltase-glucoamylase (Homo sapiens) (UniProt O43451); test: Non-competitive inhibition of alpha-glucosidase (unknown origin) using pNPG as substrate preincubated with enzyme for 15 mins followed by substrate addition and measured for 15 mins by Lineweaver-Burk plot analysis; conditions: time 30.0 min
[3] = molecular target: Maltase-glucoamylase (Homo sapiens) (UniProt O43451); test: Reversible inhibition of alpha-glucosidase (unknown origin) using pNPG as substrate assessed as reduction in velocity of enzyme-catalyzed reaction
[4] = Cytotoxicity against human L02 cells assessed as cell viability at 64 uM by CCK8 assay; type: toxicity, cell-based; conditions: read-out: Activity
[5] = molecular target: Maltase-glucoamylase (Homo sapiens) (UniProt O43451); test: Competitive inhibition of alpha-glucosidase (unknown origin) using pNPG as substrate preincubated with enzyme for 15 mins followed by substrate addition and measured for 15 mins by Lineweaver-Burk plot analysis; conditions: time 30.0 min

SMILES	inhibition [1] [%]	other results
C=CCc1cc(-c2ccc(O)c(CC=C)c2)c(O)c(C(c2ccc(OC)cc2)N2CCOCC2)c1 (stereo not drawn)	6.2	
C=CCc1cc(CN2CCCCC2C)c(O)c(-c2cc(CC=C)c(O)c(CN3CCCCC3C)c2)c1 (stereo not drawn)	3.33	
C=CCc1cc(-c2cc(CC=C)c(O)c(C(c3ccc(OC)cc3)N3CCC(C)CC3)c2)c(O)c(C(c2ccc(OC)cc2)N2CCC(C)CC2)c1 (stereo not drawn)	27.8	
C=CCc1cc(-c2ccc(O)c(CC=C)c2)c(O)c(C(c2cc(OC)c(OC)c(OC)c2)N2CCCCC2)c1 (stereo not drawn)	56.4	
C=CCc1cc(-c2ccc(O)c(CC=C)c2)c(O)c(C(c2cc(Cl)cc(Cl)c2)N2CCC(C)CC2)c1 (stereo not drawn)	97.5	inhibition [2]: Active; inhibition [3]: Active; viability at 64 µM [4]: > 80%
C=CCc1cc(-c2cc(CC=C)c(O)c(C(c3ccc(Cl)cc3)N3CCOCC3)c2)c(O)c(C(c2ccc(Cl)cc2)N2CCOCC2)c1 (stereo not drawn)	80.1	viability at 64 µM [4]: > 80%
C=CCc1cc(-c2ccc(O)c(CC=C)c2)c(O)c(C(c2cc(Cl)cc(Cl)c2)N2CCOCC2)c1 (stereo not drawn)	92.6	inhibition [2]: Active; inhibition [3]: Active; viability at 64 µM [4]: > 80%
C=CCc1cc(CN2CCC(C)CC2)c(O)c(-c2cc(CC=C)c(O)c(CN3CCC(C)CC3)c2)c1	6.5	
C=CCc1cc(CN2CCCC2)c(O)c(-c2cc(CC=C)c(O)c(CN3CCCC3)c2)c1	4.7	
C[C@H]1O[C@H](O[C@H]2[C@H](O)[C@@H](O)[C@@H](O[C@H]3[C@H](O)[C@@H](O)C(O)O[C@@H]3CO)O[C@@H]2CO)[C@H](O)[C@@H](O)[C@@H]1N[C@H]1C=C(CO)[C@@H](O)[C@H](O)[C@H]1O (stereo partly drawn)	99	inhibition [5]: Active
C=CCc1cc(-c2ccc(O)c(CC=C)c2)c(O)c(C(c2ccc(OC)cc2)N2CCCCC2)c1 (stereo not drawn)	85	viability at 64 µM [4]: > 80%
C=CCc1cc(-c2ccc(O)c(CC=C)c2)c(O)c(C(c2cc(Cl)cc(Cl)c2)N2CCCCC2)c1 (stereo not drawn)	87.7	viability at 64 µM [4]: > 80%
C=CCc1cc(-c2ccc(O)c(CC=C)c2)c(O)c(C(c2ccc(Cl)cc2)N2CCCCC2)c1 (stereo not drawn)	45	

Second part, led by results:

inhibition [1] [%]	SMILES	other results
4.8	C=CCc1cc(CN(CCC)CCC)c(O)c(-c2cc(CC=C)c(O)c(CN(CCC)CCC)c2)c1	
8.2	C=CCc1ccc(O)c(-c2cc(CC=C)cc(CN(CCCC)CCCC)c2O)c1	
8.6	C=CCc1cc(-c2ccc(O)c(CC=C)c2)c(O)c(C(c2ccc(Cl)cc2)N2CCC(C)CC2)c1 (stereo not drawn)	
4.7	C=CCc1cc(CN(CCCC)CCCC)c(O)c(-c2cc(CC=C)c(O)c(CN(CCCC)CCCC)c2)c1	
15.5	C=CCc1ccc(O)c(-c2cc(CC=C)cc(CN(C)c3ccccc3)c2O)c1	
63	C=CCc1cc(CN(C)c2ccccc2)c(O)c(-c2cc(CC=C)c(O)c(CN(C)c3ccccc3)c2)c1	
43	C=CCc1cc(-c2ccc(O)c(CC=C)c2)c(O)c(C(c2cc(OC)c(OC)c(OC)c2)N2CCCC2)c1 (stereo not drawn)	
4.1	C=CCc1cc(CN(C)C(C)C)c(O)c(-c2cc(CC=C)c(O)c(CN(C)C(C)C)c2)c1	
13.6	C=CCc1cc(-c2ccc(O)c(CC=C)c2)c(O)c(C(c2ccccc2)N2CCCCC2)c1 (stereo not drawn)	
3.4	C=CCc1ccc(O)c(-c2cc(CC=C)cc(CN(C)C(C)C)c2O)c1	
6.3	C=CCc1ccc(O)c(-c2cc(CC=C)cc(CN(CCC)CCC)c2O)c1	
25.8	C=CCc1cc(-c2ccc(O)c(CC=C)c2)c(O)c(C(c2ccccc2)N2CCC(C)CC2)c1 (stereo not drawn)	
9.6	C=CCc1ccc(O)c(-c2cc(CC=C)ccc2O)c1	
9.4	C=CCc1ccc(O)c(-c2cc(CC=C)cc(CN3CCN(C)CC3)c2O)c1	
7.2	C=CCc1cc(CN(C(C)C)C(C)C)c(O)c(-c2cc(CC=C)c(O)c(CN(C(C)C)C(C)C)c2)c1	
3.8	C=CCc1ccc(O)c(-c2cc(CC=C)cc(CN(CC(C)C)CC(C)C)c2O)c1	
6.2	C=CCc1cc(CN(CC(C)C)CC(C)C)c(O)c(-c2cc(CC=C)c(O)c(CN(CC(C)C)CC(C)C)c2)c1	
30.6	C=CCc1ccc(O)c(-c2ccc(O)c(CC=C)c2)c1	
40.6	C=CCc1cc(-c2ccc(O)c(CC=C)c2)c(O)c(C(c2ccc(Cl)cc2)N2CCCC2)c1 (stereo not drawn)	
6.3	C=CCc1ccc(O)c(-c2cc(CC=C)cc(CN3CCC(C)CC3)c2O)c1	
